Measured values published in ChEMBL document CHEMBL3414572, “Identification of fused 16β,17β-oxazinone-estradiol derivatives as a new family of non-estrogenic 17β-hydroxysteroid dehydrogenase type 1 inhibitors” (Eur J Med Chem, 2015).
One block for each compound: values may come before it. Activity calls are given as the source filed them. The calls are words filed in the database; no cut-off is given here.

Assays:
[1] = target: T1, 17-beta-hydroxysteroid dehydrogenase type 1 (Homo sapiens) (UniProt P14061); assay: Inhibition of 17 beta-HSD1 in human T47D cells assessed as inhibition of transformation of [14C]E1 to [14C]E2 at 10 uM after overnight incubation; format: cell-based
T1 sequence (whole entry): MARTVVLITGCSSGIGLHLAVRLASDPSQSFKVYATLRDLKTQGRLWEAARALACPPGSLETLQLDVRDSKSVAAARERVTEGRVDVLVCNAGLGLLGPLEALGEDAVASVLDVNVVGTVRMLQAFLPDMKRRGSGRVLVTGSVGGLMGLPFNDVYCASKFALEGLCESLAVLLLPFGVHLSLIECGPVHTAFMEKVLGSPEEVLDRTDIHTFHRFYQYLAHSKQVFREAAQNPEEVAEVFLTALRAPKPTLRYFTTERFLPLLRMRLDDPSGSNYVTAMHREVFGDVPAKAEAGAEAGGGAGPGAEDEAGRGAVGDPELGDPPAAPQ

[2] = test system: T47D; assay: Estrogenic activity in human T47D cells assessed as cell proliferation at 0.5 uM incubated for 7 days with replacement of media in every 2 days by CellTitre-Glo assay; format: functional
[3] = target: T2, 17-beta-hydroxysteroid dehydrogenase type 1 (Homo sapiens, UniProt P14061); assay: Inhibition of 17 beta-HSD1 in human T47D cells assessed as inhibition of transformation of [14C]E1 to [14C]E2 after overnight incubation; format: cell-based
T2 sequence (P14061 whole entry): T1 sequence (whole entry)

[4] = test system: T47D; assay: Estrogenic activity in human T47D cells assessed as cell proliferation at 0.1 uM incubated for 7 days with replacement of media in every 2 days by CellTitre-Glo assay; format: functional
[5] = target: T3, 17-beta-hydroxysteroid dehydrogenase type 2 (Homo sapiens) (UniProt P37059); assay: Inhibition of 17 beta-HSD2 (unknown origin) transfected in HEK293 cells using [14C]E2 as substrate at 10 uM; format: cell-based
T3 sequence (whole entry): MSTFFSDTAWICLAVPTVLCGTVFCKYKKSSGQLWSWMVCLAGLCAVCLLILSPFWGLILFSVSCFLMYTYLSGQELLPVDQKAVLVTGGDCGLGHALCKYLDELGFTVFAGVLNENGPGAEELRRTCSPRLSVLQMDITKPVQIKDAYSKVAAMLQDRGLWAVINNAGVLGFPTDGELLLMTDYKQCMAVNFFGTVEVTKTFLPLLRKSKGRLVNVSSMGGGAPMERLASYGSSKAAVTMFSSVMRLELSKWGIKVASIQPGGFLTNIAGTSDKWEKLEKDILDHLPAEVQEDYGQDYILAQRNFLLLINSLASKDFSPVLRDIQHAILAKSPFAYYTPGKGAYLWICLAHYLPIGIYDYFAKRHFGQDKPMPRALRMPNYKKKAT

[6] = target: T3, 17-beta-hydroxysteroid dehydrogenase type 2 (Homo sapiens); assay: Inhibition of 17 beta-HSD2 (unknown origin) transfected in HEK293 cells using [14C]E2 as substrate at 1 uM; format: cell-based
[7] = target: T4, Very-long-chain 3-oxoacyl-CoA reductase (Homo sapiens) (UniProt Q53GQ0); assay: Inhibition of 17 beta-HSD12 (unknown origin) at 10 uM
T4 sequence (whole entry): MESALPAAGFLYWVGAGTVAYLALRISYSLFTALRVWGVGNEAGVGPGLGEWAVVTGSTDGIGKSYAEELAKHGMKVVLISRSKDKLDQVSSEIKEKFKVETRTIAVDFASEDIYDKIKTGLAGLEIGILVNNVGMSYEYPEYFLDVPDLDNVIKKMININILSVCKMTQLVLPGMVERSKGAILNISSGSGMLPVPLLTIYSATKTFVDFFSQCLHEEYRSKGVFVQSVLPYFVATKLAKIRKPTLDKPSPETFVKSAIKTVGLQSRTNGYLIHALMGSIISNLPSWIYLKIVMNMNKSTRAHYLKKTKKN

- inhibition [1]: Active
SMILES: CCCCCCCCN1C(=O)O[C@@H]2[C@@]3(C)CC[C@@H]4c5ccc(O)cc5CC[C@H]4[C@@H]3C[C@]2(O)[C@@H]1c1cccc(C(N)=O)c1

- inhibition [1]: Active
SMILES: CCCCCCCCN1C(=O)O[C@H]2C(=C[C@H]3[C@@H]4CCc5cc(O)ccc5[C@H]4CC[C@]23C)[C@@H]1c1cccc(C(N)=O)c1

- inhibition [5]: 15%
- inhibition [6]: 10%
- inhibition [1]: Active
- inhibition [7]: inactive
- IC50 [3]: 1.4 µM
SMILES: CCCCN1C(=O)O[C@H]2C(=C[C@H]3[C@@H]4CCc5cc(O)ccc5[C@H]4CC[C@]23C)[C@@H]1c1cccc(C(N)=O)c1
- Activity [2]: inactive
- Activity [4]: inactive

The next lines start with the compound.

SMILES: CCCCCCN1C(=O)O[C@H]2C(=C[C@H]3[C@@H]4CCc5cc(O)ccc5[C@H]4CC[C@]23C)[C@@H]1c1cccc(C(N)=O)c1
- inhibition [1]: Active

SMILES: CCCCCCN1C(=O)O[C@@H]2[C@@]3(C)CC[C@@H]4c5ccc(O)cc5CC[C@H]4[C@@H]3C[C@]2(O)[C@@H]1c1cccc(C(N)=O)c1
- Activity [2]: Active
- inhibition [1]: Active
- IC50 [3]: 6.6 µM

SMILES: CCN1C(=O)O[C@@H]2[C@@]3(C)CC[C@@H]4c5ccc(O)cc5CC[C@H]4[C@@H]3C[C@]2(O)[C@@H]1c1cccc(C(N)=O)c1
- inhibition [1]: Active

SMILES: CCN1C(=O)O[C@H]2C(=C[C@H]3[C@@H]4CCc5cc(O)ccc5[C@H]4CC[C@]23C)[C@@H]1c1cccc(C(N)=O)c1
- inhibition [1]: Active

SMILES: C[C@]12CC[C@@H]3c4ccc(O)cc4CC[C@H]3[C@@H]1CC[C@@H]2O [ESTRADIOL]
- growth at 0.5 µM ([2]; read-out: Activity): 380%
- growth at 0.1 µM ([4]; read-out: Activity): 320%

SMILES: CCCCN1C(=O)O[C@@H]2[C@@]3(C)CC[C@@H]4c5ccc(O)cc5CC[C@H]4[C@@H]3C[C@]2(O)[C@@H]1c1cccc(C(N)=O)c1
- inhibition [1]: Active
